This is an account of results in patent US20250154173A1 (Merck Sharp & Dohme LLC, priority 2023, published 2025).

Structures are written as SMILES.

The target in this experiment is T1, GST-RIPK1 (recombinant GST-RIPK1 kinase domain (residues 1-327)) (Homo sapiens, UniProt Q13546).
T1 construct: recombinant GST-RIPK1 kinase domain (residues 1-327) enzyme produced from baculovirus-transfected Sf21 cells; host or cells: baculovirus-transfected Sf21 insect cells
T1 sequence (Q13546 1-327): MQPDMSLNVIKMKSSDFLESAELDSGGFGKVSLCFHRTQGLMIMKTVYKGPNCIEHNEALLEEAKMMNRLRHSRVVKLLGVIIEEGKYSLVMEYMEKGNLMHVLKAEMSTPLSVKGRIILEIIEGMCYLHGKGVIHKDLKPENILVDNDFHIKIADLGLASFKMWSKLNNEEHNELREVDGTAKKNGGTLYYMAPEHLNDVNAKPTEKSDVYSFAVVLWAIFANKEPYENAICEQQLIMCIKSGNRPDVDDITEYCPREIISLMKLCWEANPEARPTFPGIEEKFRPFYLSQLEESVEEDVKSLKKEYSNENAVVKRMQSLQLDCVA
Put plainly: RIPK1-ADP-Glo Enzymatic Assay. The format is biochemical. Conditions: ten-point titration, top compound concentration of 100000 nM; 25 nM GST-RIPK1, 300 μM ATP, 3 μM dephosphorylated-MBP; 30 min pre-incubation, 150 min reaction. An outline of the steps: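 ADP-Glo luminescence quantifies ADP formed over 150 minutes by 25 nM Sf21-produced GST-RIPK1 (1-327) using 300 μM ATP and 3 μM dephosphorylated MBP, following 30-minute compound preincubation at 1% DMSO. Ten-point 1:3 series from 100000 nM gave EC50 via four-parameter sigmoidal regression.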

On to `O=C1N2C(CC[C@H]2c2cnccn2)OC12CC(OCc1ccc3cnccc3c1)C2` (stereo partly drawn) [Example 18.85, (5′S)-3-[(isoquinolin-6-yl)methoxy]-5′-(pyrazin-2-yl)tetrahydro-3′H-spiro[cyclobutane-1,2′-pyrrolo[2,1-b][1,3]oxazol]-3′-one], for which the EC50 came out at 0.079 µM. As for `COc1ccc(COC2CC3(C2)OC2CC[C@@H](c4cnccn4)N2C3=O)cc1CC#N` (stereo partly drawn) [Example 18.86, [2-methoxy-5-({[(5′S)-3′-oxo-5′-(pyrazin-2-yl)tetrahydro-3′H-spiro[cyclobutane-1,2′-pyrrolo[2,1-b][1,3]oxazol]-3-yl]oxy}methyl)phenyl]acetonitrile], the figure is 0.094 µM; as for `O=C1N2C(CC[C@H]2c2cnccn2)OC12CC(OCc1cc(-n3ccnc3)ccn1)C2` (stereo partly shown) [Example 18.87], 0.583 µM.

With `N#Cc1ccc(OC2CCC2)cc1COC1CC2(C1)OC1CC[C@@H](c3cnccn3)N1C2=O` (stereo partly drawn) [Example 18.88, 4-(cyclobutyloxy)-2-({[(5′S)-3′-oxo-5′-(pyrazin-2-yl)tetrahydro-3′H-spiro[cyclobutane-1,2′-pyrrolo[2,1-b][1,3]oxazol]-3-yl]oxy}methyl)benzonitrile], the half-maximal effective concentration (EC50) was 0.169 µM. As for `COc1ccc2cc(COC3CC4(C3)OC3CC[C@@H](c5cnccn5)N3C4=O)cc(C)c2n1` (stereo partly drawn) [Example 18.89, (5′S)-3-[(2-methoxy-8-methylquinolin-6-yl)methoxy]-5′-(pyrazin-2-yl)tetrahydro-3′H-spiro[cyclobutane-1,2′-pyrrolo[2,1-b][1,3]oxazol]-3′-one], the figure is 0.238 µM; as for `O=C1N2C(CC[C@H]2c2cnccn2)OC12CC(OCc1cnc3c(c1)CCCC3)C2` (stereo partly drawn) [Example 18.90, (5′S)-5′-(pyrazin-2-yl)-3-[(5,6,7,8-tetrahydroquinolin-3-yl)methoxy]tetrahydro-3′H-spiro[cyclobutane-1,2′-pyrrolo[2,1-b][1,3]oxazol]-3′-one], 0.78 µM; as for `O=C1N2C(CC[C@H]2c2cnccn2)OC12CC(OCc1cc3ncccc3s1)C2` (stereo partly drawn) [Example 18.91, (5′S)-5′-(pyrazin-2-yl)-3-[(thieno[3,2-b]pyridin-2-yl)methoxy]tetrahydro-3′H-spiro[cyclobutane-1,2′-pyrrolo[2,1-b][1,3]oxazol]-3′-one], 0.022 µM. As for `O=C1N2C(CC[C@H]2c2cnccn2)OC12CC(OCc1ccc3c(c1)CCO3)C2` (stereo partly drawn) [Example 18.92, (5′S)-3-[(2,3-dihydro-1-benzofuran-5-yl)methoxy]-5′-(pyrazin-2-yl)tetrahydro-3′H-spiro[cyclobutane-1,2′-pyrrolo[2,1-b][1,3]oxazol]-3′-one], the figure is 0.243 µM; as for `N#Cc1ccncc1COC1CC2(C1)OC1CC[C@@H](c3cnccn3)N1C2=O` (stereo partly drawn) [Example 18.93, 3-({[(5′S)-3′-oxo-5′-(pyrazin-2-yl)tetrahydro-3′H-spiro[cyclobutane-1,2′-pyrrolo[2,1-b][1,3]oxazol]-3-yl]oxy}methyl)pyridine-4-carbonitrile], 0.329 µM. As for `O=C1N2C(CC[C@H]2c2cnccn2)OC12CC(OCc1cnc3nccn3c1)C2` (stereo partly drawn) [Example 18.94, (5′S)-3-[(imidazo[1,2-a]pyrimidin-6-yl)methoxy]-5′-(pyrazin-2-yl)tetrahydro-3′H-spiro[cyclobutane-1,2′-pyrrolo[2,1-b][1,3]oxazol]-3′-one], the figure is 0.283 µM; as for `N#CCCc1ccc(COC2CC3(C2)OC2CC[C@@H](c4cnccn4)N2C3=O)cc1` (stereo partly drawn) [Example 18.95, 3-[4-({[(5′S)-3′-oxo-5′-(pyrazin-2-yl)tetrahydro-3′H-spiro[cyclobutane-1,2′-pyrrolo[2,1-b][1,3]oxazol]-3-yl]oxy}methyl)phenyl]propanenitrile], 0.13 µM. Consider `O=C1N2C(CC[C@H]2c2cnccn2)OC12CC(OCc1cccc(N3CCCC3)n1)C2` (stereo partly drawn) [Example 18.96, (5′S)-5′-(pyrazin-2-yl)-3-{[6-(pyrrolidin-1-yl)pyridin-2-yl]methoxy}tetrahydro-3′H-spiro[cyclobutane-1,2′-pyrrolo[2,1-b][1,3]oxazol]-3′-one], for which the concentration for a half-maximal effect (EC50) stood at 0.225 µM. For `O=C1N2C(CC[C@H]2c2cnccn2)OC12CC(OCc1ccc3nc(C(F)(F)F)sc3c1)C2` (stereo partly drawn) [Example 18.97, (5′S)-5′-(pyrazin-2-yl)-3-{[2-(trifluoromethyl)-1,3-benzothiazol-6-yl]methoxy}tetrahydro-3′H-spiro[cyclobutane-1,2′-pyrrolo[2,1-b][1,3]oxazol]-3′-one] the value was 0.289 µM; for `N#CCc1ncc(COC2CC3(C2)OC2CC[C@@H](c4cnccn4)N2C3=O)cc1Cl` (stereo partly drawn) [Example 18.98, [3-chloro-5-({[(5′S)-3′-oxo-5′-(pyrazin-2-yl)tetrahydro-3′H-spiro[cyclobutane-1,2′-pyrrolo[2,1-b][1,3]oxazol]-3-yl]oxy}methyl)pyridin-2-yl]acetonitrile], 0.198 µM. As for `COCCOc1ccc(COC2CC3(C2)OC2CC[C@@H](c4cnccn4)N2C3=O)cc1` (stereo partly drawn) [Example 18.99, (5′S)-3-{[4-(2-methoxyethoxy)phenyl]methoxy}-5′-(pyrazin-2-yl)tetrahydro-3′H-spiro[cyclobutane-1,2′-pyrrolo[2,1-b][1,3]oxazol]-3′-one], the figure is 0.205 µM. For `N#Cc1cccc(F)c1COC1CC2(C1)OC1CC[C@@H](c3cnccn3)N1C2=O` (stereo partly drawn) [Example 18.100, 3-fluoro-2-({[(5′S)-3′-oxo-5′-(pyrazin-2-yl)tetrahydro-3′H-spiro[cyclobutane-1,2′-pyrrolo[2,1-b][1,3]oxazol]-3-yl]oxy}methyl)benzonitrile] the value was 0.472 µM; for `O=C1N2C(CC[C@H]2c2cnccn2)OC12CC(OCc1cnn(-c3ccncc3)c1)C2` (stereo partly shown) [Example 18.101], 0.367 µM; for `O=C1N2C(CC[C@H]2c2cnccn2)OC12CC(OCc1ccccc1-n1cccn1)C2` (stereo partly drawn) [Example 18.102, (5′S)-5′-(pyrazin-2-yl)-3-{[2-(1H-pyrazol-1-yl)phenyl]methoxy}tetrahydro-3′H-spiro[cyclobutane-1,2′-pyrrolo[2,1-b][1,3]oxazol]-3′-one], 0.736 µM. As for `O=C1N2C(CC[C@H]2c2cnccn2)OC12CC(OCc1ccc3nc(C(F)(F)F)cn3c1)C2` (stereo partly shown) [Example 18.103], the 50% effective concentration (EC50) worked out at 0.607 µM. As for `N#Cc1ccoc1COC1CC2(C1)OC1CC[C@@H](c3cnccn3)N1C2=O` (stereo partly drawn) [Example 18.104, 2-({[(5′S)-3′-oxo-5′-(pyrazin-2-yl)tetrahydro-3′H-spiro[cyclobutane-1,2′-pyrrolo[2,1-b][1,3]oxazol]-3-yl]oxy}methyl)furan-3-carbonitrile], the figure is 0.355 µM; as for `CCc1nnc(-c2ccc(COC3CC4(C3)OC3CC[C@@H](c5cnccn5)N3C4=O)cc2)o1` (stereo partly drawn) [Example 18.105, (5′S)-3-{[4-(5-ethyl-1,3,4-oxadiazol-2-yl)phenyl]methoxy}-5′-(pyrazin-2-yl)tetrahydro-3′H-spiro[cyclobutane-1,2′-pyrrolo[2,1-b][1,3]oxazol]-3′-one], 0.066 µM.

With `O=C1N2C(CC[C@H]2c2cnccn2)OC12CC(OCc1ccc(OC3CCOCC3)nc1)C2` (stereo partly drawn) [Example 18.106, (5′S)-3-({6-[(oxan-4-yl)oxy]pyridin-3-yl}methoxy)-5′-(pyrazin-2-yl)tetrahydro-3′H-spiro[cyclobutane-1,2′-pyrrolo[2,1-b][1,3]oxazol]-3′-one], the concentration giving a half-maximal response (EC50) came out at 0.569 µM. For `O=C1N2C(CC[C@H]2c2cnccn2)OC12CC(OCc1cc3cncnc3s1)C2` (stereo partly drawn) [Example 18.107, (5′S)-5′-(pyrazin-2-yl)-3-(thieno[2,3-d]pyrimidin-6-ylmethoxy)tetrahydro-3′H-spiro[cyclobutane-1,2′-pyrrolo[2,1-b]oxazol]-3′-one] the value was 0.034 µM. For `O=C1N2C(CC[C@H]2c2cnccn2)OC12CC(OCc1ccc3c(c1)CCO3)C2` (stereo partly drawn) [Example 18.108, (5′S)-3-((2,3-dihydrobenzofuran-5-yl)methoxy)-5′-(pyrazin-2-yl)tetrahydro-3′H-spiro[cyclobutane-1,2′-pyrrolo[2,1-b]oxazol]-3′-one] the value was 0.094 µM; for `N#Cc1cccc(COC2CC3(C2)O[C@@H]2CC[C@@H](c4cnccn4)N2C3=O)c1` (stereo partly drawn) [Example 18.109, 3-((((5′S,7a′R)-3′-oxo-5′-(pyrazin-2-yl)tetrahydro-3′H-spiro[cyclobutane-1,2′-pyrrolo[2,1-b]oxazol]-3-yl)oxy)methyl)benzonitrile], 0.025 µM; for `O=C1N2[C@@H](CC[C@H]2c2cnccn2)OC12CC(OCc1ccc3cnoc3c1)C2` (stereo partly drawn) [Example 18.110, (5′S,7a′R)-3-(benzo[d]isoxazol-6-ylmethoxy)-5′-(pyrazin-2-yl)tetrahydro-3′H-spiro[cyclobutane-1,2′-pyrrolo [2,1-b]oxazol]-3′-one], 0.044 µM.

For `O=C1N2[C@@H](CC[C@H]2c2cnccn2)O[C@]12C[C@@H](Oc1cccnc1)C2` [Example 19.1, (5′S,7a′R)-5′-(pyrazin-2-yl)-3-(pyridin-3-yloxy)tetrahydro-3′H-spiro[cyclobutane-1,2′-pyrrolo[2,1-b]oxazol]-3′-one], the EC50 was found to be 0.031 µM. As to `N#Cc1cccc(OC2CC3(C2)O[C@@H]2CC[C@@H](c4cnccn4)N2C3=O)c1` (stereo partly drawn) [Example 19.3, 3-{[(5′S,7a′R)-3′-oxo-5′-(pyrazin-2-yl)tetrahydro-3′H-spiro[cyclobutane-1,2′-pyrrolo[2,1-b][1,3]oxazol]-3-yl]oxy}benzonitrile], the EC50 was 0.02 µM.
